Values quoted from earlier work in US20100183739A1, “Treatment and prevention of systemic bacterial infections in plants using antimicrobial metal compositions” (priority 2009, published 2010).

Tested on: bacteria
Settings: Appl Environ Microbiol. 2008; 74(7): 2171-2178

[Ag+] [silver ion]
silver ion concentration for inhibition of bacterial growth: below 5 ppm
